One molecule from patent US11013706B2, “Non-pharmaceutical bactericidal composition against Helicobacter pylori” (ECO-GEO BIO-TECHNOLOGY COMPANY LIMITED., priority 2019, dated 2021) can be followed below.

In experiment [1] the test system is Helicobacter pylori strain 26695 (ATCC700392). As to the kind of experiment: Embodiment 1: antibacterial experiment against Helicobacter pylori, citrate and phosphate buffer combinations with or without ascorbic acid (viable count). It counts as cell-based.
For experiment [2] the test system is unchanged. As to the kind of experiment: Embodiment 4: antibacterial experiment against Helicobacter pylori, malate, lactate, citrate and phosphate buffer combinations with ascorbic acid (viable count). It counts as cell-based. How it is done: The bacteria strain used in the experiment was Helicobacter pylori strain 26695 (ATCC700392), and the bacteria were subcultured on Brucella solid medium (Brucella broth 28 g/L, Agar 15 g/L and 10% (v/v) Horse serum, pH 7.0). After the bacteria were seeded by streaking method, they were cultured in a humidified anaerobic chamber at 37° C. for 72 hours using a microaerobic bag (Genbox microaer, BioMerieux, 96125). […] Brucella broth containing 10 mg/mL of NaHCO3 was added to the Helicobacter pylori subcultured for 72 hours, bacterial concentration was adjusted to 10^7-10^8 CFU/mL as a bacterial solution, the bacterial solution was mixed with each culture solution in a 1:1 ratio, and the mixture was incubated at 37° C. in a humidified anaerobic chamber using a micro-aerobic bag (Genbox microaer, BioMerieux, 96125). […] The malate buffer combination and the lactate buffer combination were prepared by mixing malic acid and sodium malate, and lactic acid and sodium lactate, respectively, in the same way. The phosphate buffer solutions were prepared by mixing KH2PO4 and Na2HPO4 in different ratios according to their pH values, and the unmodulable portion was prepared by HCl and NaOH to reach a constant pH value. The pH of the pure medium was adjusted with HCl and NaOH. […] Finally, the viable count of each culture medium was calculated.

Structures are written as SMILES.

For `O=C1O[C@H]([C@@H](O)CO)C(O)=C1O` [ascorbic acid, L-Ascorbic acid], the “effect of the ascorbic acid on the sterilization of the citrate buffer combination” value in experiment [1] (comparing C3 with C3V3000, and C4 with C4V3000) is “synergistic effect”. For the same molecule, the “effect of the ascorbic acid added to the phosphate buffer combination or water” value in experiment [1] (presence of bicarbonate, Embodiment 1) is reported as “neither the bactericidal effect nor the synergistic effect”; in experiment [2] (presence of bicarbonate, Embodiments 3 and 4), “neither bactericidal effect nor synergistic effect”. Besides, the “effect of the ascorbic acid on the sterilization effect of the citrate or the malate buffer combination” value in experiment [2] (comparing Embodiment 3 and Embodiment 4) was “synergistic effect”.
